Tested on: Hepatotoxicity
Experiment: Literature-mined public compounds from Greene et al multi-species hepatotoxicity modelling dataset

Row | Molecule | Hepatotoxicity
1 | O=C(c1ccc(OCCN2CCCCC2)cc1)c1c(-c2ccc(O)cc2)sc2cc(O)ccc12 [RALOXIFENE] | WE: Weak evidence (<10 case reports) of human hepatotoxicity
2 | NCCc1ccc(O)c(O)c1 [DOPAMINE] | NE: No evidence of hepatotoxicity in any species
3 | COc1ccc2cc([C@H](C)C(=O)O)ccc2c1 [NAPROXEN] | WE: Weak evidence (<10 case reports) of human hepatotoxicity
4 | CC(C)(C)c1ccc(C(O)CCCN2CCC(C(O)(c3ccccc3)c3ccccc3)CC2)cc1 (stereo not drawn) [TERFENADINE] | NE: No evidence of hepatotoxicity in any species
5 | COC(=O)Nc1nc2ccc(C(=O)c3cccs3)cc2[nH]1 [NOCODAZOLE] | NE: No evidence of hepatotoxicity in any species
6 | CC(c1cc2ccccc2s1)N(O)C(N)=O (stereo not drawn) [ZILEUTON] | HH: Evidence of human hepatotoxicity
7 | Cl[C@H]1[C@H](Cl)[C@@H](Cl)[C@@H](Cl)[C@H](Cl)[C@H]1Cl (stereo in doubt; form 1) [LINDANE] | NE: No evidence of hepatotoxicity in any species
8 | CC[C@H]1OC(=O)[C@H](C)[C@@H](O[C@H]2C[C@@](C)(OC)[C@@H](O)[C@H](C)O2)[C@H](C)[C@@H](O[C@@H]2O[C@H](C)C[C@H](N(C)C)[C@H]2O)[C@](C)(O)C[C@@H](C)CN(C)[C@H](C)[C@@H](O)[C@]1(C)O [AZITHROMYCIN] | WE: Weak evidence (<10 case reports) of human hepatotoxicity
9 | CC(C)NCC(O)COc1cccc2ccccc12 (stereo not drawn) [PROPRANOLOL] | NE: No evidence of hepatotoxicity in any species
10 | Nc1nc(=O)c2c([nH]1)NCC(CNc1ccc(C(=O)N[C@@H](CCC(=O)[O-])C(=O)[O-])cc1)N2C=O.[Ca+2] (stereo partly drawn) [LEUCOVORIN CALCIUM] | NE: No evidence of hepatotoxicity in any species
11 | Clc1ccc(COC(Cn2ccnc2)c2ccc(Cl)cc2Cl)c(Cl)c1 (stereo not drawn) [MICONAZOLE] | NE: No evidence of hepatotoxicity in any species
12 | CCc1nc(N)nc(N)c1-c1ccc(Cl)cc1 [PYRIMETHAMINE] | HH: Evidence of human hepatotoxicity
13 | Nc1nc2ncc(CNc3ccc(C(=O)N[C@@H](CCC(=O)O)C(=O)O)cc3)nc2c(=O)[nH]1 [FOLIC ACID] | NE: No evidence of hepatotoxicity in any species
14 | Cc1ncc(C[n+]2csc(CCO)c2C)c(N)n1 [THIAMINE ION] | NE: No evidence of hepatotoxicity in any species
15 | S=C=Nc1cccc2ccccc12 [1-NAPHTHYLISOTHIOCYANATE] | HH: Evidence of human hepatotoxicity
16 | CN1CCN(CCCN2c3ccccc3Sc3ccc(C(F)(F)F)cc32)CC1 [TRIFLUOPERAZINE] | HH: Evidence of human hepatotoxicity
17 | C[C@@](Cc1ccc(O)c(O)c1)(NN)C(=O)O.O [CARBIDOPA] | NE: No evidence of hepatotoxicity in any species
18 | C[C@@H](CO)NC(=O)[C@@H]1C=C2c3cccc4[nH]cc(c34)C[C@H]2N(C)C1.O=C(O)/C=C\C(=O)O [ERGONOVINE MALEATE] | NE: No evidence of hepatotoxicity in any species
19 | O=C(O)c1cc(-c2ccccc2)nc2ccccc12 [CINCHOPHEN] | HH: Evidence of human hepatotoxicity
20 | COC(=O)C1=C(C)NC(C)=C(C(=O)OCCN(C)Cc2ccccc2)C1c1cccc([N+](=O)[O-])c1.Cl (stereo not drawn) [NICARDIPINE HYDROCHLORIDE] | HH: Evidence of human hepatotoxicity
21 | Cc1cccc(Nc2cc(Cl)nc(SCC(=O)O)n2)c1C [PIRINIXIC ACID] | AH: Evidence for animal hepatotoxicity but not tested in humans

Row | Molecule | Hepatotoxicity
22 | CCN(CC)C(=O)/C(C#N)=C/c1cc(O)c(O)c([N+](=O)[O-])c1 [ENTACAPONE] | WE: Weak evidence (<10 case reports) of human hepatotoxicity
23 | CC1(C)S[C@@H]2[C@H](NC(=O)[C@H](NC(=O)N3CCNC3=O)c3ccccc3)C(=O)N2[C@H]1C(=O)[O-].[Na+] [AZLOCILLIN SODIUM] | NE: No evidence of hepatotoxicity in any species
24 | Cc1oncc1C(=O)Nc1ccc(C(F)(F)F)cc1 [LEFLUNOMIDE] | HH: Evidence of human hepatotoxicity
25 | O=C(O)c1ccncc1 [ISONICOTINIC ACID] | NE: No evidence of hepatotoxicity in any species
26 | COC(=O)C1=C(C)NC(C)=C(C(=O)OC)C1c1ccccc1[N+](=O)[O-] [NIFEDIPINE] | HH: Evidence of human hepatotoxicity
27 | OC(Cn1cncn1)(Cn1cncn1)c1ccc(F)cc1F [FLUCONAZOLE] | HH: Evidence of human hepatotoxicity
28 | CC(CCc1ccccc1)NCC(O)c1ccc(O)c(C(N)=O)c1 (stereo not drawn) [LABETALOL] | HH: Evidence of human hepatotoxicity
29 | CCCSc1ccc2nc(NC(=O)OC)[nH]c2c1 [ALBENDAZOLE] | HH: Evidence of human hepatotoxicity
30 | N=C(N)NCCN1CCCCCCC1.N=C(N)NCCN1CCCCCCC1.O=S(=O)(O)O [GUANETHIDINE SULFATE] | HH: Evidence of human hepatotoxicity
31 | CC(C)NNC(=O)c1ccncc1 [IPRONIAZID] | HH: Evidence of human hepatotoxicity
32 | CC(=N)S [THIOACETAMIDE] | AH: Evidence for animal hepatotoxicity but not tested in humans
33 | Cc1nnc(NS(=O)(=O)c2ccc(N)cc2)s1 [SULFAMETHIZOLE] | HH: Evidence of human hepatotoxicity
34 | CCC1(c2ccc(N)cc2)CCC(=O)NC1=O (stereo not drawn) [AMINOGLUTETHIMIDE] | NE: No evidence of hepatotoxicity in any species
35 | CN(C)CCCN1c2ccccc2CCc2ccc(Cl)cc21 [CLOMIPRAMINE] | HH: Evidence of human hepatotoxicity
36 | CC[C@@H]1C(=O)OC[C@@H]1Cc1cncn1C [PILOCARPINE] | NE: No evidence of hepatotoxicity in any species
37 | CCCCCCCCCCCCCCCC(=O)OC/C=C(C)/C=C/C=C(C)/C=C/C1=C(C)CCCC1(C)C [VITAMIN A PALMITATE] | AH: Evidence for animal hepatotoxicity but not tested in humans
38 | Cc1ccc(C(=O)c2cc(O)c(O)c([N+](=O)[O-])c2)cc1 [TOLCAPONE] | HH: Evidence of human hepatotoxicity
39 | CNCCCN1c2ccccc2CCc2ccccc21 [DESIPRAMINE] | WE: Weak evidence (<10 case reports) of human hepatotoxicity
40 | CN(C)CCC(c1ccc(Cl)cc1)c1ccccn1.O=C(O)/C=C\C(=O)O (stereo not drawn) [CHLORPHENIRAMINE MALEATE] | HH: Evidence of human hepatotoxicity
41 | CC(CCc1ccc(O)cc1)NCCc1ccc(O)c(O)c1.Cl (stereo not drawn) [DOBUTAMINE HYDROCHLORIDE] | NE: No evidence of hepatotoxicity in any species
42 | CS(=O)(=O)O.Cc1ccc(N(CC2=NCCN2)c2cccc(O)c2)cc1 [PHENTOLAMINE MESYLATE] | HH: Evidence of human hepatotoxicity

Row | Molecule | Hepatotoxicity
43 | CC[C@@H](CO)NC(=O)[C@@H]1C=C2c3cccc4[nH]cc(c34)C[C@H]2N(C)C1.O=C(O)/C=C\C(=O)O [METHYLERGONOVINE MALEATE] | NE: No evidence of hepatotoxicity in any species
44 | C[C@H](CCc1ccccc1)NC[C@H](O)c1ccc(O)c(C(N)=O)c1 [DILEVALOL] | HH: Evidence of human hepatotoxicity
45 | CO[C@@H]1[C@@H](OC(N)=O)[C@@H](O)[C@H](Oc2ccc3c(O)c(NC(=O)c4ccc(O)c(CC=C(C)C)c4)c(=O)oc3c2C)OC1(C)C [NOVOBIOCIN] | HH: Evidence of human hepatotoxicity
46 | COCCOC(=O)C1=C(C)NC(C)=C(C(=O)OC(C)C)C1c1cccc([N+](=O)[O-])c1 (stereo not drawn) [NIMODIPINE] | HH: Evidence of human hepatotoxicity
47 | CCCCC(CC)COC(=O)C=Cc1ccc(OC)cc1 (stereo not drawn) [OCTINOXATE] | HH: Evidence of human hepatotoxicity
48 | CISPLATIN | HH: Evidence of human hepatotoxicity
49 | C=C[C@H]1C[N@@]2CC[C@H]1C[C@H]2[C@H](O)c1ccnc2ccc(OC)cc12 [QUININE] | HH: Evidence of human hepatotoxicity
50 | NC(CO)(CO)CO.O=C(c1ccccc1)c1ccc2n1CCC2C(=O)O (stereo not drawn) [KETOROLAC TROMETHAMINE] | HH: Evidence of human hepatotoxicity
51 | C#C[C@]1(O)CC[C@H]2[C@@H]3CCc4cc(OC)ccc4[C@H]3CC[C@@]21C [MESTRANOL] | HH: Evidence of human hepatotoxicity
52 | CC(C)(C(=O)O)c1ccc(C(O)CCCN2CCC(C(O)(c3ccccc3)c3ccccc3)CC2)cc1 (stereo not drawn) [FEXOFENADINE] | NE: No evidence of hepatotoxicity in any species
53 | O=C(O)P(=O)(O)O [FOSCARNET] | NE: No evidence of hepatotoxicity in any species
54 | COc1cc(C(=O)NCc2ccc(OCCN(C)C)cc2)cc(OC)c1OC.Cl [TRIMETHOBENZAMIDE HYDROCHLORIDE] | HH: Evidence of human hepatotoxicity
55 | C[n+]1ccc(-c2cc[n+](C)cc2)cc1 | AH: Evidence for animal hepatotoxicity but not tested in humans
56 | Nc1cc(Cl)c(O)c(Cl)c1.Nc1ccc(O)cc1 | AH: Evidence for animal hepatotoxicity but not tested in humans
57 | CN1CCN(C2=Nc3cc(Cl)ccc3Nc3ccccc32)CC1 [CLOZAPINE] | HH: Evidence of human hepatotoxicity
58 | CC(C)Cc1ccc(CC(=O)O)cc1 [IBUFENAC] | HH: Evidence of human hepatotoxicity
59 | BISMUTH SUBSALICYLATE | NE: No evidence of hepatotoxicity in any species
60 | NC(=O)c1cnccn1 [PYRAZINAMIDE] | HH: Evidence of human hepatotoxicity
61 | Nc1ccn([C@@H]2CS[C@H](CO)O2)c(=O)n1 [LAMIVUDINE] | WE: Weak evidence (<10 case reports) of human hepatotoxicity
62 | C[C@H]1O[C@@H](O[C@H]2[C@@H](O)C[C@H](O[C@H]3[C@@H](O)C[C@H](O[C@H]4CC[C@@]5(C)[C@H](CC[C@@H]6[C@@H]5C[C@@H](O)[C@]5(C)[C@@H](C7=CC(=O)OC7)CC[C@]65O)C4)O[C@@H]3C)O[C@@H]2C)C[C@H](O)[C@@H]1O [DIGOXIN] | NE: No evidence of hepatotoxicity in any species
63 | O=C(COc1ccc(Cl)cc1)N1CCN(Cc2ccc3c(c2)OCO3)CC1 [FIPEXIDE] | HH: Evidence of human hepatotoxicity
